Where no end group is shown, it is not given here. The star is where a group is joined. Acm = CC(=O)NC*

Here are results for 6 substances from US8691945B2, “Antimicrobial peptides” (Singapore Health Services Pte Ltd., priority 2006, dated 2014).

The nature of data set [1]: Molecular hydrophobicity by RP-HPLC-MS retention time, C-terminus analogs. It is filed as physicochemical. The settings on record: 1 mg/ml; gradient 2-15.5% in 30 mins then 15.5-31% in 3 mins of eluent B (ACN). As for the experimental part: The overall molecular hydrophobicity of the C-terminus hBD3 analogs were measured by RP-HPLC-MS in terms of retention time at 1 mg/ml (Table 4 and FIG. 14). RP-HPLC is an approach that is commonly employed for such comparisons of peptides or amino acid side chains among antibacterial peptides. Since the stationary phase of C18-modified silica is hydrophobic and the mobile phase (water-acetonitrile) is hydrophilic, longer retention times should be correlated with higher hydrophobicity. The measured order for the molecular hydrophobicity of the peptides is as follows: W2>F2>L2>I2>Y2>V2>C2>H2.

Data set [2] has as its system Bacillus cereus NCTC 2599. The data set can be described thus: Antimicrobial assay, bacteria growth in liquid broth with serially diluted peptides. The settings on record: B cereus, NCTC2599; for vLD50: concentration of peptide at which 50% of the viable cells are killed. It is filed as cell-based. As for the experimental part: (§1) The bacteria assayed included Escherichia coli ATCC 25922, Staphylococcus aureus ATCC 25923, Pseudomonas aeruginosa ATCC 27853, Bacillus cereus NCTC 2599. Sterile flat-bottom, 96-well tissue culture plates (92096, TPP) was used for assay. The inner surface of microplate cover was treated with 0.05% Triton X-100 in 20% ethanol to prevent condensation of water droplets. Growth kinetics in 96-well microplates was monitored (as turbidity) with the Tecan Genios Plus microplate reader using software Magellan v5.03 and 620-nm filter. Seed culture was monitored on Pharmacia Biotech Ultrospec 2000 UV/Visible spectrophotometer using 600-nm wavelength. Antibacterial activities of the analogs and wild-type hBD3 were determined for E. coli, B. cereus, S. aureus and P. aeruginosa by measuring bacteria growth in liquid broth in the presence of the serially diluted peptides. The LD50 is the concentration of peptide at which 50% of the viable cells are killed.
(§2) The bacteria were grown to mid-logarithmic phase in Mueller-Hinton Broth (MHB) from overnight plate culture. The cell suspension was diluted to OD 0.1 (600 nm, Pharmacia Biotech Ultropec 2000 UV/Visible spectrophotometer) in mixture of 10 mM Pot Phos buffer/MHB (equal volume (PMH). This cell suspension gave a concentration of 10^7 CFU/ml. Colony count was done for confirmation. A 10-fold dilution series of this suspension ranging from 10^7 to 10^1 CFU/ml was made in PMH (in sextuplicate for Staphylococcus aureus ATCC 25923 and Bacillus cereus NCTC 2599; in quadruplicate for Escherichia coli ATCC 25922 and in triplicate for Pseudomonas aeruginosa ATCC 27853). The final volume per well was 200 ul. For negative control well, 200 ul of uninoculated PMH was added.
(§3) LD50, LD90, LD99 and LD99.9 of wild-type hBD3 and its linear analogs were determined against two Gram-negative (E. Coli and P. aeruginosa) and two Gram-positive (B. cereus, S. aureus) (Table 3). See also FIGS. 7(A, B, C and D).

The test system of data set [3] is Pseudomonas aeruginosa ATCC 27853. Described as above. In kind it is cell-based. Particulars: P aeruginosa, ATCC27853; for vLD50: concentration of peptide at which 50% of the viable cells are killed. As for the experimental part: as §1, §2, §3
Data set [4] relates to Staphylococcus aureus ATCC 25923. The data set is described as above. It is filed as cell-based. The settings on record: Staph aureus, ATCC25923; for vLD50: concentration of peptide at which 50% of the viable cells are killed. On the procedure:
as §1, §2, §3

The test system of data set [5] is Escherichia coli ATCC 25922. Described as above. It is filed as cell-based. Particulars: E coli, ATCC25922; for vLD50: concentration of peptide at which 50% of the viable cells are killed. As for the experimental part:
as §1, §2, §3

Data set [6] in a line: Molecular hydrophobicity by HPLC-MS retention time, full-length analogs. It is filed as physicochemical. Also noted: unit: min. Particulars: average of three tries, one value per charged fragment. On the procedure:
Molecular hydrophobicity of peptides was measured by HPLC-MS at the same experimental conditions, e.g., the same peptide concentration (500 or 100 μg/ml), loading (5 μl) and flow rate of 0.2 ml/min in the same gradient 18-38% of eluant A in 32 min and relatively compared in term of retention time (Rt) of product peak.
In comparison with native hBD3, this series of linear analogs of hBD3 with full-length and 11 net positive charge are structurally homogenous as they are designed and synthesized only by uniform replacement of six bridging cysteine residues in hBD3 with other six residues with different hydrophobicity, e.g., A, S, C(Acm), F, Y and W. These linear analogs provide a well-defined model for testing the effect of overall hydrophobicity, second structure and linearity/or constraint imposed by three disulfide bridges on antibacterial, cytotoxicity and hemolytic activities. We have measured the relative molecular hydrophobicity by HPLC-MS in term of retention time (tR) at 500 ug/ml and 100 ug/ml (Table 2) and overall hydrophobicity were calculated based on the hydrophobicity scale of Wilmley and White and Hopp-Woods Scale, respectively. The change trend of overall hydrophobicity, which is calculated based on two different scale, generally fits well, and the HPLC result matches the calculations very well. The general order for the relative molecular hydrophobicity of peptides is as following: W6>F6>Y6>native hBD3>A6>S6>C(Acm)6. […] In the following sections, we will discuss the effect of overall hydrophobicity of peptide on biological activities.

The test system of data set [7] is E. coli, B. cereus, S. aureus and P. aeruginosa. The data set can be described thus: Antimicrobial assay, statements pooled over the four pathogens. The settings on record: in comparison with hBD3. It is filed as cell-based. On the procedure: as §1
The bacteria were grown to mid-logarithmic phase in Mueller-Hinton Broth (MHB) from overnight plate culture. […]
LD50, LD90, LD99 and LD99.9 of wild-type hBD3 and its linear analogs were determined against two Gram-negative (E. Coli and P. aeruginosa) and two Gram-positive (B. cereus, S. aureus) (Table 3). […]

For “RGRKHHRRKK (10 aa hBD3 derived peptide (C terminus), C replaced with H) [Peptide H2, 10-residue C-terminus fragment analog of hBD3]”, in data set [1], the “Overall hydrophobicity in terms of ACN % of peak” value is listed as 7.15% and the “Overall hydrophobicity in terms of Retention time (UV peak)” value (“Overall hydrophobicity … (UV peak)” for short) was determined as 11.45 min.

Turning to “RGRKIIRRKK (10 aa hBD3 derived peptide (C terminus), C replaced with I) [Peptide I2, 10-residue C-terminus fragment analog of hBD3]”, in data set [1], the “Overall hydrophobicity in terms of ACN % of peak” value amounted to 11.96% and the “Overall hydrophobicity … (UV peak)” value was 22.13 min.

Take “RGRKFFRRKK (10 aa hBD3 derived peptide (C terminus), C replaced with F) [Peptide F2, 10-residue C-terminus fragment analog of hBD3]”: in data set [1], the “Overall hydrophobicity in terms of ACN % of peak” value is listed as 14.78% and the “Overall hydrophobicity … (UV peak)” value is recorded as 28.41 min.

For the substance “GIINTLQKYYCRVRGGRCAVLSCLPKEEQIGKCSTRGRKCCRRKK (disulfide (positions not given here); also: three disulfide bonds, pairing not given here; listed as Homo sapiens) [whbd3, wild type human β-defensin 3 with three disulfide bonds, used as control, reference compound]”, the vLD90 was 5.8 µg/mL in data set [2], 5.7 µg/mL in data set [3], 10.7 µg/mL in data set [4] and 11.8 µg/mL in data set [5]. Further, the vLD99 in data set [2] came out at 6.2 µg/mL; in data set [3] it was 11.4 µg/mL; in data set [4] it was 12.2 µg/mL; in data set [5], 12.4 µg/mL. Besides, the vLD99.9 in data set [2] was determined as 6.2 µg/mL; in data set [3] it was 12.4 µg/mL; in data set [4] it was 12.5 µg/mL; in data set [5] it was 12.5 µg/mL. Moreover, the vLD50 in data set [2] was 3.9 µg/mL; in data set [3] it was 2.7 µg/mL; in data set [4], 5.5 µg/mL; in data set [5] it was 9.3 µg/mL. In addition, the “Relative hydrophobicity in term of retention time (Rt) in HPLC-MS, Average” value is 24.28 in data set [6] (100 ug/ml, listed as Wild-type hBD3, fragment m/z 860.2); 24.29 in data set [6] (100 ug/ml, listed as Wild-type hBD3, fragment m/z 1032.2); 23.24 in data set [6] (500 ug/ml, listed as Wild-type hBD3, fragment m/z 860.2); 23.28 in data set [6] (500 ug/ml, listed as Wild-type hBD3, fragment m/z 1032.2).

“RGRKC(Acm)C(Acm)RRKK [Peptide C2, 10-residue C-terminus fragment analog of hBD3]”: in data set [1], the “Overall hydrophobicity in terms of ACN % of peak” value was 9.67% and the “Overall hydrophobicity … (UV peak)” value is on record as 17.05 min.

With “GIINTLQKYYC(Acm)RVRGGRC(Acm)AVLSC(Acm)LPKEEQIGKC(Acm)STRGRKC(Acm)C(Acm)RRKK-OH [C(Acm)6, GIINTLQKYY C(Acm)6RVRGGR C(Acm)6AVLS C(Acm)6LPKEEQIGK C(Acm)6STRGRK C(Acm)6C(Acm)6RRKK]”, the vLD90 was determined as 28.3 µg/mL in data set [2], 21.7 µg/mL in data set [3], 46.8 µg/mL in data set [4] and 23.8 µg/mL in data set [5]. In addition, the vLD99 in data set [2] was determined as 47.8 µg/mL; in data set [3] it was 24.7 µg/mL; in data set [4] it was 91 µg/mL; in data set [5], 24.9 µg/mL. Also, the vLD99.9 is 49.8 µg/mL in data set [2], 25 µg/mL in data set [3], greater than 100 µg/mL in data set [4] and 42 µg/mL in data set [5]. The vLD50 is 19.6 µg/mL in data set [2], 11.2 µg/mL in data set [3], 25 µg/mL in data set [4] and 18.7 µg/mL in data set [5]. Further, the “antibacterial potency in words” value in data set [7] is on record as “relatively less potency”. Also, the “Relative hydrophobicity in term of retention time (Rt) in HPLC-MS, Average” value in data set [6] (100 ug/ml) is reported as 20.94; in data set [6] (500 ug/ml, fragment m/z 799.3) it was 20.12; in data set [6] (500 ug/ml, fragment m/z 932.4), 20.15; in data set [6] (500 ug/ml, fragment m/z 1118.8) it was 20.11.
